Laboratory results from ChEMBL document CHEMBL1201862, “PubChem BioAssay data set” (2004).
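Protocol summary: plate cells (96-well), add compound at 5 concentrations, incubate 48 h, interpolate endpoints linearly. GI50 = concentration required for 50% inhibition of growth.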 Calls of active or inactive are those of the source. No stated cut-off is given here; in the data, active = GI50 up to about 1.1 µM and inactive = higher.

Columns and labels:
Test in all cases: growth of human tumour cells (NCI), 48 h
A549 = system: A549
CCRF-CEM = system: CCRF-CEM
HCT-116 = system: HCT-116
HCT-15 = system: HCT-15
HL-60 = system: HL-60
HOP-62 = system: HOP-62
Hs-578T = system: Hs-578T
K562 = system: K562
MDA-N = system: MDA-N
MOLT-4 = system: MOLT-4
NCI-H226 = system: NCI-H226
NCI/ADR-RES = system: NCI/ADR-RES
OVCAR-4 = system: OVCAR-4
OVCAR-8 = system: OVCAR-8
SNB-75 = system: SNB-75
UACC-257 = system: UACC-257
UO-31 = system: UO-31
SK-OV-3 = system: SK-OV-3
T47D = system: T47D

SMILES	GI50 (A549)	GI50 (CCRF-CEM)	GI50 (HCT-116)	GI50 (HCT-15) [µM]	GI50 (HL-60)	GI50 (HOP-62)	GI50 (Hs-578T)	GI50 (K562)	GI50 (MDA-N)	GI50 (MOLT-4)	GI50 (NCI-H226)	GI50 (NCI/ADR-RES)	GI50 (OVCAR-4)	GI50 (OVCAR-8)	GI50 (SNB-75)	GI50 (UACC-257)	GI50 (UO-31)	GI50 (SK-OV-3)	GI50 (T47D)
CN1CC[C@]2(c3cccc(O)c3)CC(=O)/C(=C/c3ccccc3)[C@@H]1C2.[O-][Cl+3]([O-])([O-])O	3.42 µM (inactive)	2.13 µM (inactive)	2.31 µM (inactive)	1.66	1.8 µM (inactive)	3.88 µM (inactive)	4.62 µM (inactive)	1.64 µM (inactive)	1.58 µM (inactive)	2.04 µM (inactive)	15 µM (inactive)	2.98 µM (inactive)	3.37 µM (inactive)	3.03 µM (inactive)	2 µM (inactive)	3.24 µM (inactive)	2.51 µM (inactive)	–	–
CC(=O)Oc1c(N2CCCCC2)c(C(=O)c2ccccc2)c(O)c2ccn(N(C)C)c12	12.4 µM (inactive)	15.7 µM (inactive)	9.51 µM (inactive)	18	6.38 µM (inactive)	27.2 µM (inactive)	28.8 µM (inactive)	34.4 µM (inactive)	17.9 µM (inactive)	0.736 µM (active)	14.2 µM (inactive)	15.7 µM (inactive)	24.5 µM (inactive)	20.7 µM (inactive)	13.2 µM (inactive)	16.8 µM (inactive)	17.6 µM (inactive)	20.8 µM (inactive)	–
COC(=O)C(Cc1nc2ccccc2nc1O)C(NO)C(=O)Nc1c(Cl)cc([N+](=O)[O-])cc1Cl (stereo unspecified)	38.5 µM (inactive)	23.3 µM (inactive)	22.3 µM (inactive)	49.2	–	26 µM (inactive)	–	40.8 µM (inactive)	–	27.9 µM (inactive)	–	–	38.5 µM (inactive)	30.4 µM (inactive)	–	27.7 µM (inactive)	36.1 µM (inactive)	37.9 µM (inactive)	–
COc1ccc(/N=N/c2ccc3oc(=O)c(C(=O)Nc4ccccc4C)cc3c2)cc1	–	–	–	> 10	–	> 10 µM (inactive)	> 10 µM (inactive)	–	> 10 µM (inactive)	> 10 µM (inactive)	> 10 µM (inactive)	> 10 µM (inactive)	> 10 µM (inactive)	> 10 µM (inactive)	4.69 µM (inactive)	> 10 µM (inactive)	> 10 µM (inactive)	> 10 µM (inactive)	> 10 µM (inactive)
CC1(C)CC(=O)C(=[N+]=[N-])C(=O)C1	> 100 µM (inactive)	> 100 µM (inactive)	> 100 µM (inactive)	> 100	> 100 µM (inactive)	> 100 µM (inactive)	–	> 100 µM (inactive)	–	–	> 100 µM (inactive)	–	> 100 µM (inactive)	–	> 100 µM (inactive)	> 100 µM (inactive)	–	> 100 µM (inactive)	–
Nc1ncnc2c1cnn2Cc1cn(COCC(O)CO)nn1 (stereo unspecified)	> 100 µM (inactive)	> 100 µM (inactive)	> 100 µM (inactive)	> 100	> 100 µM (inactive)	> 100 µM (inactive)	14.4 µM (inactive)	–	> 100 µM (inactive)	–	–	> 100 µM (inactive)	> 100 µM (inactive)	> 100 µM (inactive)	–	> 100 µM (inactive)	> 100 µM (inactive)	> 100 µM (inactive)	> 100 µM (inactive)
COc1ccc2c(c1)OCC1Cc3cc4c(cc3OC21)OCO4 (stereo unspecified)	38.8 µM (inactive)	51.1 µM (inactive)	31 µM (inactive)	30.4	–	41.2 µM (inactive)	–	33.1 µM (inactive)	3.14 µM (inactive)	36.8 µM (inactive)	> 100 µM (inactive)	26.2 µM (inactive)	–	45 µM (inactive)	–	30.2 µM (inactive)	38.6 µM (inactive)	37.2 µM (inactive)	32.1 µM (inactive)
CC1CCc2sc3nc(S)n(-c4ccccc4)c(=O)c3c2C1 (stereo unspecified)	81.8 µM (inactive)	–	> 100 µM (inactive)	> 100	–	36.3 µM (inactive)	61.1 µM (inactive)	> 100 µM (inactive)	> 100 µM (inactive)	41.1 µM (inactive)	48.9 µM (inactive)	> 100 µM (inactive)	39.7 µM (inactive)	> 100 µM (inactive)	29.3 µM (inactive)	63.8 µM (inactive)	15.1 µM (inactive)	55.1 µM (inactive)	33.4 µM (inactive)
c1ccc(-n2nc3ccc4nonc4c3n2)cc1	> 100 µM (inactive)	> 100 µM (inactive)	> 100 µM (inactive)	> 100	> 100 µM (inactive)	> 100 µM (inactive)	–	> 100 µM (inactive)	> 100 µM (inactive)	> 100 µM (inactive)	–	> 100 µM (inactive)	> 100 µM (inactive)	> 100 µM (inactive)	49.1 µM (inactive)	> 100 µM (inactive)	–	> 100 µM (inactive)	> 100 µM (inactive)
